Experimental findings from patent US6630326B2, “Cancer diagnosis and therapy based on mutations in TGF-β receptors” (Case Western Reserve University, priority 1995, dated 2003) are described below.

“Also recorded” adds a separate entry of the source.

Assay [1] relates to RII protein expression in MCF-7, ZR-75, and T-47D. In words: 125I-TGFβ cross-link assay for cell surface RII protein after 5-Azacytidine treatment. The following applies: MCF-7, ZR-75, T-47D; 2.5-5.0 μM 5-Azacytidine; after 8 days. It counts as cell-based, human. An excerpt: A preferred method of detecting the presence of functional RII is by TGFβ binding assay in which labelled TGFβ binds to RII followed by cross-linking and measurement of the amount of label linked to RII protein. Details of this assay have been published in Sun, et al., incorporated herein by reference. Briefly, cell surface receptors may be detected by cross-linking in situ to ^125I labelled TGFβ followed by separation on SDS-PAGE and visualization by autoradiography as described in Example 3 below.
To assay for expression of cell surface TGFβ receptors, we performed cross-linking experiments with ^125I-labeled TGFβ. Cell surface TGFβ receptors were labeled by cross-linking to ^125I-labeled human TGFβ1 as described in Sun, L., et al., 1994 (J. Biol. Chem., 269:26449). Labeled receptors were resolved by SDS-polyacrylamide gel electrophoresis and visualized by autoradiography. There was no detectable ^125I-TGFβ binding to any of eight tested RER^+ cell lines with reduced amounts of RII transcript (FIG. 3). The absence of RI surface receptors in these lines (FIG. 3) is consistent with previous reports that RII receptor is required for TGFβ binding to RI (Wrana, J., et al., 1992, Cell, 71:1003; Sun, L., et al., 1994, J. Biol. Chem., 269:26449). […]

The subject of assay [2] is RII expression in MCF-7, ZR-75, and T-47D. In words: RNase protection assay for RII transcript after 5-Azacytidine treatment. It counts as cell-based, human. The following applies: ER+ breast cancer cell lines MCF-7, ZR-75, T-47D; 2.5-5.0 μM 5-Azacytidine; after 8 days. An excerpt: A preferred method for detecting loss of mRNA is based on RNase protection. Details of this assay have been published in Sun, et al. Briefly the RNase protection assay measures the amount of RII mRNA in a sample by measuring the amount of RNA which binds to a radioactive antisense RII RNA probe. The radioactive antisense RII RNA probe is produced in a test tube, for example from a plasmid which carries 264 bp for RII cDNA (NarI-PstI) cloned downstream of a T3 RNA polymerase site from which the RNA can be transcribed. Usually, a control human probe such as γ-actin RNA is also prepared from a similar plasmid. The probes are hybridized overnight at room temperature in a guanidine buffer with RNA extracted from tumor cells. The next morning probe RNA which is not protected by binding to authentic RII transcript is destroyed by digestion with RNase A+T1. Protected probe RNA is separated from the reaction by electrophoresis on a urea-acrylamide gel and visualized by autoradiography.
Expression of RI and RII transcripts was examined in 38 human colon tumor cell lines using a ribonuclease (RNase) protection assay as described above (see also Sun, et al., 1994). Total RNA (40 μg) from each sample was hybridized overnight in a single reaction to probes for RI, RII and human γ-actin. […]

Assay [3] concerns colon cells with intact TGFβ receptors. In words: TGFβ-induced cell death in colon cells. The format is cell-based. Particulars: colon cells with intact TGFβ receptors exposed to TGFβ. An excerpt:
Thus, therapeutic effects of restoring an active RII in colon cancer cells will include restoring normal cell death pathways. RII gene therapy is thus useful in combination with and to sensitize cells to conventional cytotoxic radiation or chemotherapy.

`Nc1ncn([C@@H]2O[C@H](CO)[C@@H](O)[C@H]2O)c(=O)n1` [5-Azacytidine]: in assay [1], the “RII protein expression (125I-TGFβ cross-link)” value is “RII protein expression was confirmed”. For the same compound, the “RII expression (RNase protection assay)” value in assay [2] was “restored RII expression; also recorded: RII expression by the treated cells was demonstrated”.
Consider “TGFβ: transforming growth factor beta, natural inhibitor of growth of human epithelial cells”, for which the “induction of cell death (apoptosis)” value in assay [3] was “induce cell death”.
